Measured values from ChEMBL document CHEMBL1153159, “Oxime derivatives related to AP18: Agonists and antagonists of the TRPA1 receptor” (Bioorg Med Chem Lett, 2010).

Experiments:
Assay type in all cases: functional, cell-based
[1] = biological target: T1, Transient receptor potential cation channel subfamily A member 1 (Homo sapiens, UniProt O75762); test: Agonist activity at human TRPA1 expressed in HEK293 cells assessed as [45]Ca2+ influx by microbeta plate count relative to cinnamaldehyde
[2] = biological target: T1, Transient receptor potential cation channel subfamily A member 1; test: Agonist activity at human TRPA1 expressed in HEK293 cells assessed as [45]Ca2+ influx by microbeta plate count
[3] = biological target: T1, Transient receptor potential cation channel subfamily A member 1; test: Antagonist activity at human TRPA1 expressed in HEK293 cells assessed as [45]Ca2+ influx by microbeta plate count
[4] = biological target: T1, Transient receptor potential cation channel subfamily A member 1; test: Antagonist activity at human TRPA1 expressed in HEK293 cells assessed as inhibition of cinnamaldehyde-induced [45]Ca2+ influx by microbeta plate count

T1 sequence (O75762 whole entry): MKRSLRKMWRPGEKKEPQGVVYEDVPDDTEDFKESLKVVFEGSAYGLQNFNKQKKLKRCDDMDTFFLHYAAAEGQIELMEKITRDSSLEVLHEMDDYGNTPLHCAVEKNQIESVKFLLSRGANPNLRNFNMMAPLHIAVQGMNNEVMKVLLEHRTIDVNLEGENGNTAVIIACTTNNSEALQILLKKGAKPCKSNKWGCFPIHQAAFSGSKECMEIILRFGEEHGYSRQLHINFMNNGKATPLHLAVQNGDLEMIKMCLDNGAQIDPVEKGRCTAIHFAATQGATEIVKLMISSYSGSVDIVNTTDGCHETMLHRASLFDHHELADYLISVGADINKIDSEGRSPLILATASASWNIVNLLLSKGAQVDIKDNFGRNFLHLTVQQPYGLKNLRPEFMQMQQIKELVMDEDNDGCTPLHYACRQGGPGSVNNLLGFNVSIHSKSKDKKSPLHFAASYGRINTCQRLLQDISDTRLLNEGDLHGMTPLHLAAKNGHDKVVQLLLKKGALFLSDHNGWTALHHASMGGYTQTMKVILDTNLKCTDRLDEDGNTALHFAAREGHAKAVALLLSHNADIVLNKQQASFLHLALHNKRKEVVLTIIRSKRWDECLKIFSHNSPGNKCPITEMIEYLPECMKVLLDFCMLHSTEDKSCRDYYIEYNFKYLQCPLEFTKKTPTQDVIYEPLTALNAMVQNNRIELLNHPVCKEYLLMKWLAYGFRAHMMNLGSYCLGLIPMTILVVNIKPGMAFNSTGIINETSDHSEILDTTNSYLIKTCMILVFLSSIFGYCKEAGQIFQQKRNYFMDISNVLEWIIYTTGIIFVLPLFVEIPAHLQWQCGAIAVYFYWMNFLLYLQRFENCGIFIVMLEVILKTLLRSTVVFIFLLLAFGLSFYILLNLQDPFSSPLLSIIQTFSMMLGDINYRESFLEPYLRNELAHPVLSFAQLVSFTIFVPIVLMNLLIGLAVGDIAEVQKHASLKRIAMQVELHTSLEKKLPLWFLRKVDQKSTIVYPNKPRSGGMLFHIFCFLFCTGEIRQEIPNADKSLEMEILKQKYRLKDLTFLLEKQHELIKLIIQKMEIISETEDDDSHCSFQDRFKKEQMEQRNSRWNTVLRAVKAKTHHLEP

| Efficacy [1] | EC50 [2] [µM] | IC50 [3] [µM] | KB [4] [µM] | Structure (SMILES) |
| --- | --- | --- | --- | --- |
| 0.23 | 46.1 | – | – | COc1ccc(/C=C(C)/C(C)=N/O)cc1 |
| 0 | – | – | – | CC(=C\c1cccc([N+](=O)[O-])c1)/C(C)=N/O |
| 0 | – | 2.8 | 1.26 | CC(=C\c1ccc(Cl)cc1)/C(C)=N/O [AP18 5] |
| 0 | – | – | – | CC(=C\c1ccccc1Cl)/C(C)=N/O |
| 0.85 | 63.1 | – | – | CC(/C=C/c1cccc(Cl)c1)=N\O |
| 0 | – | 2.7 | 1.91 | CC(=C\c1ccccc1)/C(C)=N/O |
| 0.84 | 14.4 | – | – | CC(=C\c1cccc(C)c1)/C(C)=N/O |

Further lines, the compound ahead of its results:

| Structure (SMILES) | Efficacy [1] | EC50 [2] [µM] | IC50 [3] [µM] | KB [4] [µM] |
| --- | --- | --- | --- | --- |
| O/N=C/C=C/c1ccc(Cl)cc1 | 0.46 | – | – | – |
| O/N=C\C=C\c1ccc(Cl)cc1 | 0.85 | 9.4 | – | – |
| O/N=C/C=C/c1ccccc1 | 0 | – | – | – |
| O/N=C/C=C/c1ccc(C(F)(F)F)cc1 | 0.13 | – | – | – |
| CC(/C=N/O)=C\c1ccccc1 | 0.18 | 69.4 | – | – |
| CC(/C=C/c1cccc(Cl)c1)=N/O | 0.21 | – | – | – |
| CC(/C=C/c1ccc2c(c1)OCO2)=N\O | 0.54 | 11.5 | – | – |
| O=C/C=C/c1ccccc1 [CINNAMALDEHYDE] | – | 51.4 | – | – |
| CN(C)c1ccc(/C=C/C=N/O)cc1 | 0.87 | 15.9 | – | – |
| CC(/C=C/c1ccc(Cl)cc1)=N\O | 0.66 | 27.6 | – | – |
| CC(/C=C/c1ccccc1)=N\O | 0.27 | 96.6 | – | – |
| CC(/C=N/O)=C\c1ccc(C(C)(C)C)cc1 | 0.15 | – | – | – |
| NC(/C=C/c1cc(C(F)(F)F)cc(C(F)(F)F)c1)=N\O | < 0.1 | – | – | – |
